Assay results reported in the supplement of paper PMC10307832.

Assays:
Assay in all cases: relative viability (nuclei count vs DMSO), 5 days (fraction); higher = more cells survive
A-427 = tested on: A-427
Outline: (§1)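 Values are medians from duplicate plates. Each reflects relative viability, defined as the nuclei count of treated wells over that of vehicle wells. Lung cancer cell lines in 1536-well plates were pin-tool dosed one day after seeding with one drug alone or with a fixed anchor-drug dose plus five library-drug doses (not always all listed) in √10 steps, then fixed, stained and imaged at 4× after 5 days.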

ABC-1 = tested on: ABC-1
Outline: as §1

COR-L23 = tested on: COR-L23
Outline: as §1

EMC-BAC-2 = tested on: EMC-BAC-2
Outline: as §1

HARA = tested on: HARA
Outline: as §1

HOP-62 = tested on: HOP-62
Outline: as §1

LK-2 = tested on: LK-2
Outline: as §1

LXF-289 = tested on: LXF-289
Outline: as §1

NCI-H1792 = tested on: NCI-H1792
Outline: as §1

NCI-H1793 = tested on: NCI-H1793
Outline: as §1

NCI-H1944 = tested on: NCI-H1944
Outline: as §1

NCI-H1993 = tested on: NCI-H1993
Outline: as §1

NCI-H2009 = tested on: NCI-H2009
Outline: as §1

NCI-H2228 = tested on: NCI-H2228
Outline: as §1

NCI-H3122 = tested on: NCI-H3122
Outline: as §1

NCI-H596 = tested on: NCI-H596
Outline: as §1

NCI-H727 = tested on: NCI-H727
Outline: as §1

PC-3 [JPC-3] = tested on: PC-3 [JPC-3]
Outline: as §1

SK-LU-1 = tested on: SK-LU-1
Outline: as §1

SK-MES-1 = tested on: SK-MES-1
Outline: as §1

SW 1573 = tested on: SW 1573
Outline: as §1

Question: For CC1(C)CCC(c2ccc(Cl)cc2)=C(CN2CCN(c3ccc(C(=O)NS(=O)(=O)c4ccc(N[C@H](CCN5CCOCC5)CSc5ccccc5)c(S(=O)(=O)C(F)(F)F)c4)cc3)CC2)C1 [Navitoclax] + C[C@]1(O)C[C@@H](c2nc(-c3ccc4ccc(-c5ccccc5)nc4c3)c3c(N)nccn32)C1 [Linsitinib] (partner 1 µM), which relative viability (A-427; first compound 0.005 µM) is on record?
Answer: 1.13

Question: And the relative viability (A-427; first compound 0.01581 µM)?
Answer: 1.11

Question: What about the relative viability (A-427; first compound 0.05 µM) of the same molecule?
Answer: 0.911

Question: And the relative viability (A-427; first compound 0.1581 µM)?
Answer: 1.12

Question: What about the relative viability (A-427; first compound 0.5 µM) of the same molecule?
Answer: 1.15

Question: What about the relative viability (ABC-1; first compound 0.005 µM) of the same molecule?
Answer: 0.641

Question: And the relative viability (ABC-1; first compound 0.01581 µM)?
Answer: 0.976

Question: And the relative viability (ABC-1; first compound 0.05 µM)?
Answer: 0.81

Question: What about the relative viability (ABC-1; first compound 0.1581 µM) of the same molecule?
Answer: 0.703

Question: What about the relative viability (ABC-1; first compound 0.5 µM) of the same molecule?
Answer: 0.708

Question: What about the relative viability (COR-L23; first compound 0.005 µM) of the same molecule?
Answer: 0.874

Question: And the relative viability (COR-L23; first compound 0.01581 µM)?
Answer: 0.991

Question: And the relative viability (COR-L23; first compound 0.05 µM)?
Answer: 0.97

Question: And the relative viability (COR-L23; first compound 0.1581 µM)?
Answer: 0.853

Question: And the relative viability (COR-L23; first compound 0.5 µM)?
Answer: 0.88

Question: What about the relative viability (EMC-BAC-2; first compound 0.005 µM) of the same molecule?
Answer: 0.759

Question: And the relative viability (EMC-BAC-2; first compound 0.01581 µM)?
Answer: 0.895

Question: What about the relative viability (EMC-BAC-2; first compound 0.05 µM) of the same molecule?
Answer: 0.809

Question: What about the relative viability (EMC-BAC-2; first compound 0.1581 µM) of the same molecule?
Answer: 0.78

Question: And the relative viability (EMC-BAC-2; first compound 0.5 µM)?
Answer: 0.83

Question: And the relative viability (HARA; first compound 0.005 µM)?
Answer: 0.833

Question: What about the relative viability (HARA; first compound 0.01581 µM) of the same molecule?
Answer: 1.16

Question: What about the relative viability (HARA; first compound 0.05 µM) of the same molecule?
Answer: 0.749

Question: And the relative viability (HARA; first compound 0.1581 µM)?
Answer: 0.918

Question: What about the relative viability (HARA; first compound 0.5 µM) of the same molecule?
Answer: 0.861

Question: What about the relative viability (HOP-62; first compound 0.005 µM) of the same molecule?
Answer: 0.976

Question: And the relative viability (HOP-62; first compound 0.01581 µM)?
Answer: 0.871

Question: What about the relative viability (HOP-62; first compound 0.05 µM) of the same molecule?
Answer: 0.955

Question: And the relative viability (HOP-62; first compound 0.1581 µM)?
Answer: 0.767

Question: And the relative viability (HOP-62; first compound 0.5 µM)?
Answer: 0.923

Question: What about the relative viability (LK-2; first compound 0.005 µM) of the same molecule?
Answer: 0.792

Question: And the relative viability (LK-2; first compound 0.01581 µM)?
Answer: 0.803

Question: And the relative viability (LK-2; first compound 0.05 µM)?
Answer: 0.805

Question: And the relative viability (LK-2; first compound 0.1581 µM)?
Answer: 0.51

Question: And the relative viability (LK-2; first compound 0.5 µM)?
Answer: 0.623

Question: What about the relative viability (LXF-289; first compound 0.005 µM) of the same molecule?
Answer: 0.971

Question: And the relative viability (LXF-289; first compound 0.01581 µM)?
Answer: 0.974

Question: What about the relative viability (LXF-289; first compound 0.05 µM) of the same molecule?
Answer: 0.84

Question: And the relative viability (LXF-289; first compound 0.1581 µM)?
Answer: 0.978

Question: What about the relative viability (LXF-289; first compound 0.5 µM) of the same molecule?
Answer: 0.966

Question: And the relative viability (NCI-H1792; first compound 0.005 µM)?
Answer: 0.554

Question: What about the relative viability (NCI-H1792; first compound 0.01581 µM) of the same molecule?
Answer: 0.629

Question: And the relative viability (NCI-H1792; first compound 0.05 µM)?
Answer: 0.414

Question: And the relative viability (NCI-H1792; first compound 0.1581 µM)?
Answer: 0.539

Question: What about the relative viability (NCI-H1792; first compound 0.5 µM) of the same molecule?
Answer: 0.609

Question: And the relative viability (NCI-H1793; first compound 0.005 µM)?
Answer: 0.97

Question: And the relative viability (NCI-H1793; first compound 0.01581 µM)?
Answer: 1.17

Question: And the relative viability (NCI-H1793; first compound 0.05 µM)?
Answer: 0.643

Question: What about the relative viability (NCI-H1793; first compound 0.1581 µM) of the same molecule?
Answer: 0.834

Question: What about the relative viability (NCI-H1793; first compound 0.5 µM) of the same molecule?
Answer: 0.766

Question: What about the relative viability (NCI-H1944; first compound 0.005 µM) of the same molecule?
Answer: 1.19

Question: What about the relative viability (NCI-H1944; first compound 0.01581 µM) of the same molecule?
Answer: 1.33

Question: And the relative viability (NCI-H1944; first compound 0.05 µM)?
Answer: 1.01

Question: What about the relative viability (NCI-H1944; first compound 0.1581 µM) of the same molecule?
Answer: 1.19

Question: What about the relative viability (NCI-H1944; first compound 0.5 µM) of the same molecule?
Answer: 1.17

Question: And the relative viability (NCI-H1993; first compound 0.005 µM)?
Answer: 0.721

Question: And the relative viability (NCI-H1993; first compound 0.01581 µM)?
Answer: 0.752

Question: What about the relative viability (NCI-H1993; first compound 0.05 µM) of the same molecule?
Answer: 0.706

Question: And the relative viability (NCI-H1993; first compound 0.1581 µM)?
Answer: 0.672

Question: And the relative viability (NCI-H1993; first compound 0.5 µM)?
Answer: 0.675

Question: What about the relative viability (NCI-H2009; first compound 0.005 µM) of the same molecule?
Answer: 1.08

Question: What about the relative viability (NCI-H2009; first compound 0.01581 µM) of the same molecule?
Answer: 1.25

Question: What about the relative viability (NCI-H2009; first compound 0.05 µM) of the same molecule?
Answer: 1.16

Question: And the relative viability (NCI-H2009; first compound 0.1581 µM)?
Answer: 1.18

Question: What about the relative viability (NCI-H2009; first compound 0.5 µM) of the same molecule?
Answer: 1.31

Question: What about the relative viability (NCI-H2228; first compound 0.005 µM) of the same molecule?
Answer: 0.877

Question: What about the relative viability (NCI-H2228; first compound 0.01581 µM) of the same molecule?
Answer: 0.81

Question: What about the relative viability (NCI-H2228; first compound 0.05 µM) of the same molecule?
Answer: 0.623

Question: What about the relative viability (NCI-H2228; first compound 0.1581 µM) of the same molecule?
Answer: 0.626

Question: And the relative viability (NCI-H2228; first compound 0.5 µM)?
Answer: 0.639

Question: What about the relative viability (NCI-H3122; first compound 0.005 µM) of the same molecule?
Answer: 1.11

Question: And the relative viability (NCI-H3122; first compound 0.01581 µM)?
Answer: 1.08

Question: What about the relative viability (NCI-H3122; first compound 0.05 µM) of the same molecule?
Answer: 1.13

Question: And the relative viability (NCI-H3122; first compound 0.1581 µM)?
Answer: 0.985

Question: And the relative viability (NCI-H3122; first compound 0.5 µM)?
Answer: 1.02

Question: What about the relative viability (NCI-H596; first compound 0.005 µM) of the same molecule?
Answer: 1.09

Question: And the relative viability (NCI-H596; first compound 0.01581 µM)?
Answer: 1.09

Question: What about the relative viability (NCI-H596; first compound 0.05 µM) of the same molecule?
Answer: 0.722

Question: What about the relative viability (NCI-H596; first compound 0.1581 µM) of the same molecule?
Answer: 1

Question: What about the relative viability (NCI-H596; first compound 0.5 µM) of the same molecule?
Answer: 1.02

Question: And the relative viability (NCI-H727; first compound 0.005 µM)?
Answer: 0.299

Question: And the relative viability (NCI-H727; first compound 0.01581 µM)?
Answer: 0.358

Question: And the relative viability (NCI-H727; first compound 0.1581 µM)?
Answer: 0.284

Question: And the relative viability (NCI-H727; first compound 0.5 µM)?
Answer: 0.162

Question: What about the relative viability (PC-3 [JPC-3]; first compound 0.005 µM) of the same molecule?
Answer: 0.964

Question: What about the relative viability (PC-3 [JPC-3]; first compound 0.01581 µM) of the same molecule?
Answer: 0.996

Question: And the relative viability (PC-3 [JPC-3]; first compound 0.05 µM)?
Answer: 0.996

Question: And the relative viability (PC-3 [JPC-3]; first compound 0.1581 µM)?
Answer: 0.983

Question: What about the relative viability (PC-3 [JPC-3]; first compound 0.5 µM) of the same molecule?
Answer: 0.969

Question: And the relative viability (SK-LU-1; first compound 0.005 µM)?
Answer: 1.07

Question: What about the relative viability (SK-LU-1; first compound 0.01581 µM) of the same molecule?
Answer: 1.25

Question: What about the relative viability (SK-LU-1; first compound 0.05 µM) of the same molecule?
Answer: 1.2

Question: And the relative viability (SK-LU-1; first compound 0.1581 µM)?
Answer: 1.08

Question: What about the relative viability (SK-LU-1; first compound 0.5 µM) of the same molecule?
Answer: 0.773

Question: What about the relative viability (SK-MES-1; first compound 0.005 µM) of the same molecule?
Answer: 1.03

Question: And the relative viability (SK-MES-1; first compound 0.01581 µM)?
Answer: 1.19

Question: What about the relative viability (SK-MES-1; first compound 0.05 µM) of the same molecule?
Answer: 1.19

Question: What about the relative viability (SK-MES-1; first compound 0.1581 µM) of the same molecule?
Answer: 1.02

Question: What about the relative viability (SK-MES-1; first compound 0.5 µM) of the same molecule?
Answer: 1.1

Question: And the relative viability (SW 1573; first compound 0.005 µM)?
Answer: 0.856

Question: What about the relative viability (SW 1573; first compound 0.01581 µM) of the same molecule?
Answer: 0.841

Question: And the relative viability (SW 1573; first compound 0.05 µM)?
Answer: 0.747

Question: And the relative viability (SW 1573; first compound 0.1581 µM)?
Answer: 0.798

Question: What about the relative viability (SW 1573; first compound 0.5 µM) of the same molecule?
Answer: 0.898
